In PMC5794259, “Novel ATP-cone-driven allosteric regulation of ribonucleotide reductase via the radical-generating subunit” (eLife, 2018):
Where “and” joins values, the source holds several entries; their conditions need not be identical. Equal values may be shown once.

T1: s-site in NrdA (Leeuwenhoekiella blandensis, UniProt A3XHF8)
T1 sequence (A3XHF8 1-600): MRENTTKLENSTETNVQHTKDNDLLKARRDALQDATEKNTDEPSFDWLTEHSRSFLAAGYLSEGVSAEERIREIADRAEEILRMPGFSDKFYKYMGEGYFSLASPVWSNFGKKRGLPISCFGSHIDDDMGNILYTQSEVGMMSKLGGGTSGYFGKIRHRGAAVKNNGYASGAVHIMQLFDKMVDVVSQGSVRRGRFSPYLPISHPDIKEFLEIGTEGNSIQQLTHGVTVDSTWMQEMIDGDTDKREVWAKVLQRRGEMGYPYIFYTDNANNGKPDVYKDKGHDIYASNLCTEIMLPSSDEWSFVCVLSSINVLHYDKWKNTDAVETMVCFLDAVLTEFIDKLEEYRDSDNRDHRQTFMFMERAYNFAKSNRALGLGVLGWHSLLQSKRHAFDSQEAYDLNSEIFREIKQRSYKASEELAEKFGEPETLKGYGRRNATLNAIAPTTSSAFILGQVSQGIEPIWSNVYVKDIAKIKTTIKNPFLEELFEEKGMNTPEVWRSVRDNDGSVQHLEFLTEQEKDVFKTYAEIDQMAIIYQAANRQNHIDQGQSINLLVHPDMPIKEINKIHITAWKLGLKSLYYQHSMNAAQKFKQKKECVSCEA
T1 sequence (A3XHF9 100-427 partner): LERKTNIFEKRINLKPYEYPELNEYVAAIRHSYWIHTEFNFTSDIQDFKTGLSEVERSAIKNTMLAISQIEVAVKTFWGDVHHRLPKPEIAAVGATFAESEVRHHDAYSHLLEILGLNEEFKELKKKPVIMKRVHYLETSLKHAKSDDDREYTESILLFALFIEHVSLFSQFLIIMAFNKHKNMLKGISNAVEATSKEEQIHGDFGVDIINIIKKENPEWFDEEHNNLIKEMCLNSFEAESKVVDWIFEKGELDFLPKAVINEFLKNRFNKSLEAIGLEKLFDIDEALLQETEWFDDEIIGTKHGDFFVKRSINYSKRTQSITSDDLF


Experiments:
NrdB [1] = target: T2, NrdB (Leeuwenhoekiella blandensis, UniProt A3XHF9); test: Isothermal titration calorimetry (ITC), nucleotide binding to NrdB; conditions: for N (binding stoichiometry): per NrdB monomer, for dATP kept constant N = 2, 59% active protein; for lower affinity compared to dATP: from Kd, ITC
Description: Isothermal titration calorimetry (ITC) experiments were carried out on a MicroCal PEAQ-ITC system (Malvern Instruments Ltd) in a buffer containing 25 mM HEPES (pH 7.65), 150 mM NaCl, and 10% glycerol, 2 mM tris(2-carboxyethyl)phosphine, and 5 mM MgCl2. Measurements were done at 10°C. The initial injection volume was 0.4 μl over a duration of 0.8 s. All subsequent injection volumes were 2–2.5 μl over 4–5 s with a spacing of 150 s between the injections. Data for the initial injection were not considered. For dATP binding analysis, the concentration of NrdB in the cell was 12 µM and dATP in syringe 120 or 140 µM. Reverse titrations were performed with 113 µM NrdB in the syringe and 12 or 30 µM dATP in the cell. For titration of dATP into NrdB∆99, protein concentration in the cell and dATP concentration in the syringe were 50 µM and 900 µM respectively. […] For titration of ATP into NrdB, cell and syringe concentrations were 50 and 1600 µM respectively. The data were analyzed using the built-in one set of sites model of the MicroCal PEAQ-ITC Analysis Software (Malvern Instruments Ltd). A fixed ligand/protein stoichiometry of 2 was used for dATP to NrdB titrations. Standard deviations in thermodynamic parameters, N and Kd were estimated from the fits of three different titrations.

[2] = target: L. blandensis RNR, a-site (NrdB-linked ATP-cone) (Leeuwenhoekiella blandensis, UniProt A3XHF9); test: Enzyme activity assay with wild type NrdB (overall activity regulation, a-site); type: biochemical; conditions: for interaction with the a-site (effect on GDP reduction): 2 mM nucleotide, s-site saturating dTTP (2 mM), 4 µM NrdA and 1 µM NrdB
Description: (§1) Enzyme assays were performed at room temperature in 50 mM Tris-HCl at pH 8 in volumes of 50 μl. Reaction conditions, giving maximal activity were determined experimentally. […] Mixtures of 0.5 μM NrdA and 2 μM wild type NrdB or NrdB∆99 (for determination of s-site KL) (Figure 3a–b) or 0.5 μM of NrdB and 2 uM NrdA (for determination of a-site KL), (Figure 3c–f) were used. Some components were explicitly varied in specific experiments. Generally, 0.8 mM CDP was used as substrate. […] When dTTP was used as an s-site effector, 0.5 mM or 0.8 mM GDP was used as substrate. In four substrate assays, the four substrates CDP, ADP, GDP and UDP were simultaneously present in the mixture at concentrations of 0.5 mM each. The substrate mixture was added last to start the reactions. Certain assays were performed in the presence of Mn(CH3COO)2 or FeNH4(SO4): 20 μM of the indicated metal was added to 10 μM NrdB or NrdB∆99 protein, incubated for 10 min, mixed with NrdA and added to the reaction mixture.
(§2) Enzyme reactions were incubated for 10–30 min and then stopped by the addition of methanol. The chosen incubation time gave a maximum substrate turnover of 30%. […] Compound identification was achieved by comparison with injected standards. Relative quantification was obtained by peak height measurements in the chromatogram (UV absorbance at 271 nm) in relation to standards. Specific activities of either NrdA (Figure 2a–b) or NrdB (Figure 2c–f) were determined. Specific activities varied between protein preparations. In some cases the data was standardized to activity percent, where 100% was determined as maximum enzyme activity in a specific condition.
(§3) From a direct plot of activity versus concentration of effector, the KL values for binding of effectors to the s-site and the a-site, were calculated in SigmaPlot using the equation: V=Vmax×[dNTP]/(KL+[dNTP]) and Ki for non-competitive dATP inhibition at NrdB was calculated in Sigmaplot using the equation: V=Vmax/(1+[dNTP]/Ki)

NrdB [3] = target: T2, NrdB; test: GEMMA analysis of NrdB oligomers; conditions: 50 µM nucleotide, 0.1 mg/ml NrdB (~2 µM)
Description: In GEMMA, biomolecules are electrosprayed into gas phase, neutralized to singly charged particles, and the gas phase electrophoretic mobility is measured with a differential mobility analyzer. The mobility of an analyzed particle is proportional to its diameter, which therefore allows for quantitative analysis of the different particle sizes contained in a sample ([Kaufman et al., 1996]). The GEMMA instrumental setup and general procedures were as described previously ([Rofougaran et al., 2008]). NrdA, NrdB and NrdB∆99 proteins were equilibrated by Sephadex G-25 chromatography into a buffer containing 100 mM ammonium acetate, pH 7.8. In addition, 2 mM DTT was added to the NrdA protein solutions to increase protein stability. Prior to GEMMA analysis, the protein samples were diluted to a concentration of 0.025–0.1 mg/ml in a buffer containing 20 mM ammonium acetate, pH 7.5, 0.005% (v/v) Tween 20, nucleotides (when indicated), and magnesium acetate (equimolar to the total nucleotide concentration), incubated for 5 min at room temperature, centrifuged and applied to the GEMMA instrument. Protein concentrations higher than normally recommended for GEMMA were needed to see the larger oligomeric complexes and the experiments to measure NrdA-NrdB interactions were run at as low flow rate as possible (driven by 1.4 Psi pressure) to minimize false interactions that may appear with elevated protein concentration if the flow-rate recommended by the manufacturer is used (3.7 Psi). Most of our experiments were performed with a flow rate driven by 2 Psi.

[4] = test system: L. blandensis class I RNR; test: Four-substrate activity assay, allosteric specificity regulation; type: biochemical, Leeuwenhoekiella blandensis; conditions: all four substrates 0.5 mM each, effector 2 mM, 1 µM NrdB and 4 µM NrdA
Description: as §1, §2

s-site in NrdA = target: T1, s-site in NrdA; test: Enzyme activity assay, CDP reduction, effector titration with NrdB∆99 (s-site); type: biochemical; conditions: 0.5 µM NrdA and 2 µM NrdB∆99, read-out: KL (s-site), concentration of allosteric effector that gives half maximal enzyme activity
Description: (§4) Enzyme assays were performed at room temperature in 50 mM Tris-HCl at pH 8 in volumes of 50 μl. Reaction conditions, giving maximal activity were determined experimentally. […] Mixtures of 0.5 μM NrdA and 2 μM wild type NrdB or NrdB∆99 (for determination of s-site KL) (Figure 3a–b) or 0.5 μM of NrdB and 2 uM NrdA (for determination of a-site KL), (Figure 3c–f) were used. Some components were explicitly varied in specific experiments. Generally, 0.8 mM CDP was used as substrate. […] When dTTP was used as an s-site effector, 0.5 mM or 0.8 mM GDP was used as substrate. […]
Enzyme reactions were incubated for 10–30 min and then stopped by the addition of methanol. […] Relative quantification was obtained by peak height measurements in the chromatogram (UV absorbance at 271 nm) in relation to standards. Specific activities of either NrdA (Figure 2a–b) or NrdB (Figure 2c–f) were determined. […] In some cases the data was standardized to activity percent, where 100% was determined as maximum enzyme activity in a specific condition.
as §3

[5] = test system: L. blandensis RNR (wild-type NrdB or NrdB∆99); test: Metal-dependency of enzyme activity; type: biochemical, Leeuwenhoekiella blandensis; conditions: metal added to cultures or 20 µM divalent metal ions to 10 µM NrdB
Description: Overnight cultures of E. coli BL21(DE3)/pET28a(+) bearing pET-nrdA, pET-nrdB and pET-nrdB∆99 were diluted to an absorbance at 600 nm of 0.1 in LB (Luria-Bertani) liquid medium, containing kanamycin (50 μg/ml) and shaken vigorously at 37°C. At an absorbance at 600 nm of 0.8, isopropyl-β-D-thiogalactopyranoside (Sigma) was added to a final concentration of 0.01 mM for NrdA expression and 0.5 mM for NrdB and NrdB∆99 expression. For particular experiments, 0.5 mM MnSO4 or 0.5 mM FeNH4(SO4)2 or the combination of both metals (0.4 mM and 0.25 mM respectively) were added to NrdB∆99 cultures. The cells were grown overnight at 14°C for NrdA expression and 20°C for NrdB and NrdB∆99 expression and harvested by centrifugation.
as §4

[6] = target: the molecule itself; test: SEC; with ATP; Superdex 200 10/300 GL at room temperature; 50 mM Tris-HCl pH 7.6, 150 mM KCl, 10 mM MgCl2; NrdB 10 µM
[7] = target: the molecule itself; test: GEMMA (gas-phase electrophoretic macromolecule analysis); with 50 µM dATP and equimolar magnesium acetate; 20 mM ammonium acetate pH 7.5, 0.005% Tween 20; NrdB 0.1 mg/ml (~2 µM) or NrdB∆99

| Molecule | -TΔS (NrdB [1]; 10°C) [kJ/mol] | ΔG (NrdB [1]; 10°C) [kJ/mol] | N (binding stoichiometry) (NrdB [1]; 10°C) | lower affinity compared to dATP (NrdB [1]) [fold] | interaction with the a-site (effect on GDP reduction) [2] | effect of s-site effector on substrate reduction [4] | further results |
| --- | --- | --- | --- | --- | --- | --- | --- |
| dADP | 77 ± 8 | -26 | 2.1 and 2.1 ± 0.2 | 15 | found to interact |  | ΔH (NrdB [1]; 10°C): -103 kJ/mol and -103 ± 9 kJ/mol; effect of titration on enzyme activity ([2]; CDP reduction (3 mM CDP), 2 µM NrdA and 0.5 µM NrdB): inhibited the enzyme activity, although less strongly than dATP; effect on NrdB oligomer equilibrium (NrdB [3]): induced formation of NrdB tetramers, although less efficiently than with dATP |
| Nc1nc2c(ncn2[C@H]2C[C@H](O)[C@@H](COP(=O)(O)OP(=O)(O)OP(=O)(O)O)O2)c(=O)[nH]1 [dGTP] |  |  |  |  |  | stimulated the reduction of ADP and GDP |  |
| Nc1ncnc2c1ncn2[C@@H]1O[C@H](COP(=O)(O)OP(=O)(O)OP(=O)(O)O)[C@@H](O)[C@H]1O [ATP] | 20 ± 4 | -24 | 2.2 and 2.2 ± 0.4 | 38 |  | stimulated the reduction of CDP and UDP | Kd (NrdB [1]; 10°C, one-set-of-sites model): 38 ± 2 µM; EC50 (s-site in NrdA): 30 µM; EC50 [2]: 96 µM; effect on enzyme activity ([2]; CDP reduction, 0.5 µM NrdA and 2 µM wild type NrdB): clearly activated the enzyme |
| Nc1ncnc2c1ncn2[C@@H]1O[C@H](COP(=O)(O)OP(=O)(O)O)[C@@H](O)[C@H]1O [ADP] |  |  |  |  | no effect |  |  |
| CC(=O)[O-].CC(=O)[O-].[Mn+2] [Mn, Mn(CH3COO)2] |  |  |  |  |  |  | effect of metal on catalytic activity [5]: increase in catalytic activity |
| Leeuwenhoekiella blandensis NrdBi (wild type NrdB, radical-generating subunit of class I ribonucleotide reductase) (enzyme, UniProt A3XHF9 1-427, looked up, NrdBi, radical-generating subunit of the class I RNR of Leeuwenhoekiella blandensis sp. nov. strain MED217; GenBank EAQ51288; amplified from genomic DNA with primers from the start codon to the stop codon; ATP-cone 1-103, linker 104-106, core 107-398, C-terminus 399-427; pET-28a(+) construct with N-terminal hexahistidine tag and thrombin site; Oligomeric state depends on nucleotide: dimer with …) MSSQEIKKIIKRDYSTAPFVLEKITNAIANAMAALGHGSEQDAKLISMQVYESLLNNKEQESEYIPTVEQVQDMVEDKLMSSEFHDVAKAYIIYRNKRALERKTNIFEKRINLKPYEYPELNEYVAAIRHSYWIHTEFNFTSDIQDFKTGLSEVERSAIKNTMLAISQIEVAVKTFWGDVHHRLPKPEIAAVGATFAESEVRHHDAYSHLLEILGLNEEFKELKKKPVIMKRVHYLETSLKHAKSDDDREYTESILLFALFIEHVSLFSQFLIIMAFNKHKNMLKGISNAVEATSKEEQIHGDFGVDIINIIKKENPEWFDEEHNNLIKEMCLNSFEAESKVVDWIFEKGELDFLPKAVINEFLKNRFNKSLEAIGLEKLFDIDEALLQETEWFDDEIIGTKHGDFFVKRSINYSKRTQSITSDDLF |  |  |  |  |  |  | stoichiometry N [6]: 2; stoichiometry N [7]: 4 |
